Target: T1, MAT2A (S-adenosylmethionine synthase isoform type-2) (Homo sapiens, UniProt P31153)
T1 construct: Recombinant human MAT2A (Addgene plasmid #53648), expressed in E. coli BL21 (DE3) Rosetta
Test: MAT2A enzymatic assay with pre-incubation, phosphate colorimetric readout
Assay type: biochemical

T1 sequence (P31153 whole entry, canonical isoform): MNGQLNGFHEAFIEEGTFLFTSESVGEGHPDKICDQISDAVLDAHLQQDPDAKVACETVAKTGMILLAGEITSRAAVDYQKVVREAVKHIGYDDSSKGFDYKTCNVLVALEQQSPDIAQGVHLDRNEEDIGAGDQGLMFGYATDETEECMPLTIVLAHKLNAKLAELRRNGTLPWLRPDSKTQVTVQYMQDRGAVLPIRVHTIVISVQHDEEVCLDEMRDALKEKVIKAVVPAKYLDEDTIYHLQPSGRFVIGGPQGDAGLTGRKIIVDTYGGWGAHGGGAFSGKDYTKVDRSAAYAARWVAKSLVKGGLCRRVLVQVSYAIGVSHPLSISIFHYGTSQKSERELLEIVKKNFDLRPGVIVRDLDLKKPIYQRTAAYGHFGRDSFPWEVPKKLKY

Question: C1N2CN3CN1CP(C2)C3.Cc1ccccc1.[Cl][Ru][Cl] [RAPTA-T] was tested. Which IC50 did it give?
Answer: 107 ± 13 µM

Reference: article PMC5431558, “Expression proteomics study to determine metallodrug targets and optimal drug combinations” (Scientific Reports, 2017)
